Laboratory results published in the supplement of paper PMC10307832.

Legend:
Test in all cases: relative viability (nuclei count vs DMSO), 5 days (fraction); higher = more cells survive
Omipalisib = compound: COc1ncc(-c2ccc3nccc(-c4ccnnc4)c3c2)cc1NS(=O)(=O)c1ccc(F)cc1F [Omipalisib]
How it was run: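 For viability, nuclei in each treated well were divided by nuclei in vehicle wells and the median across plates was taken. Lung cancer cell lines in 1536-well plates were pinned with five library-drug doses (not always all listed) spaced by √10, cultured 5 days without medium change, and imaged at 4× after Hoechst staining, with plates passing only at control CV below 25% and at least one doubling.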

Omipalisib + Palbociclib = compound: COc1ncc(-c2ccc3nccc(-c4ccnnc4)c3c2)cc1NS(=O)(=O)c1ccc(F)cc1F [Omipalisib] + CC(=O)c1c(C)c2cnc(Nc3ccc(N4CCNCC4)cn3)nc2n(C2CCCC2)c1=O [Palbociclib] (partner 0.5 µM)
How it was run: (§1)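 Dosing by pin tool came one day after lung cancer cell lines were seeded in 1536-well plates, using either one drug or a fixed anchor-drug dose plus five library-drug doses (not always all listed) in √10 steps. After 5 days, nuclei were counted on 4× images. Relative viability is treated-well nuclei count divided by vehicle-well nuclei count, and values are medians of duplicate plates.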

Omipalisib + Crizotinib = compound: COc1ncc(-c2ccc3nccc(-c4ccnnc4)c3c2)cc1NS(=O)(=O)c1ccc(F)cc1F [Omipalisib] + C[C@@H](Oc1cc(-c2cnn(C3CCNCC3)c2)cnc1N)c1c(Cl)ccc(F)c1Cl [Crizotinib] (partner 1 µM)
How it was run: as §1

Omipalisib + Foretinib = compound: COc1ncc(-c2ccc3nccc(-c4ccnnc4)c3c2)cc1NS(=O)(=O)c1ccc(F)cc1F [Omipalisib] + COc1cc2c(Oc3ccc(NC(=O)C4(C(=O)Nc5ccc(F)cc5)CC4)cc3F)ccnc2cc1OCCCN1CCOCC1 [Foretinib] (partner 0.25 µM)
How it was run: as §1

Omipalisib + Tozasertib = compound: COc1ncc(-c2ccc3nccc(-c4ccnnc4)c3c2)cc1NS(=O)(=O)c1ccc(F)cc1F [Omipalisib] + Cc1cc(Nc2cc(N3CCN(C)CC3)nc(Sc3ccc(NC(=O)C4CC4)cc3)n2)n[nH]1 [Tozasertib] (partner 0.1 µM)
How it was run: as §1

Omipalisib + Trametinib = compound: COc1ncc(-c2ccc3nccc(-c4ccnnc4)c3c2)cc1NS(=O)(=O)c1ccc(F)cc1F [Omipalisib] + CC(=O)Nc1cccc(-n2c(=O)n(C3CC3)c(=O)c3c(Nc4ccc(I)cc4F)n(C)c(=O)c(C)c32)c1 [Trametinib] (partner 0.02 µM)
How it was run: as §1

| Cell Line | relative viability (Omipalisib; 0.0003 µM) | relative viability (Omipalisib; 0.003 µM) | relative viability (Omipalisib; 0.03 µM) | relative viability (Omipalisib + Palbociclib; first compound 0.0003 µM) | relative viability (Omipalisib + Palbociclib; first compound 0.003 µM) | relative viability (Omipalisib + Palbociclib; first compound 0.03 µM) | relative viability (Omipalisib + Crizotinib; first compound 0.0003 µM) | relative viability (Omipalisib + Crizotinib; first compound 0.003 µM) | relative viability (Omipalisib + Crizotinib; first compound 0.03 µM) | relative viability (Omipalisib + Foretinib; first compound 0.0003 µM) | relative viability (Omipalisib + Foretinib; first compound 0.003 µM) | relative viability (Omipalisib + Foretinib; first compound 0.03 µM) | relative viability (Omipalisib + Tozasertib; first compound 0.0003 µM) | relative viability (Omipalisib + Tozasertib; first compound 0.003 µM) | relative viability (Omipalisib + Tozasertib; first compound 0.03 µM) | relative viability (Omipalisib + Trametinib; first compound 0.0003 µM) | relative viability (Omipalisib + Trametinib; first compound 0.003 µM) | relative viability (Omipalisib + Trametinib; first compound 0.03 µM) |
| --- | --- | --- | --- | --- | --- | --- | --- | --- | --- | --- | --- | --- | --- | --- | --- | --- | --- | --- |
| NCI-H2228 | 0.858 | 0.682 | 0.352 | 0.839 | 0.47 | 0.234 | 0.335 | 0.337 | 0.215 | 0.957 | 0.74 | 0.25 | 0.343 | 0.171 | 0.126 | 0.505 | 0.187 | 0.173 |
| NCI-H2405 | 0.982 | 0.681 | 0.351 | 0.507 | 0.392 | 0.312 | 0.852 | 0.769 | 0.408 | 1.01 | 0.756 | 0.39 | 0.76 | 0.648 | 0.359 | 0.486 | 0.37 | 0.271 |
| SK-LU-1 | 0.914 | 0.778 | 0.569 | 0.387 | 0.329 | 0.306 | 0.91 | 0.712 | 0.515 | 0.869 | 0.662 | 0.479 | 0.339 | 0.301 | 0.237 | 0.411 | 0.36 | 0.253 |
| CAL-12T | 1.12 | 1.1 | 0.594 | 0.533 | 0.415 | 0.142 | 0.574 | 0.676 | 0.436 | 1.26 | 1.06 | 0.684 | 0.306 | 0.28 | 0.151 | 0.299 | 0.205 | 0.173 |
| NCI-H1975 | 0.911 | 0.672 | 0.374 | 0.669 | 0.248 | 0.173 | 0.925 | 0.736 | 0.307 | 0.991 | 0.672 | 0.287 | 0.786 | 0.502 | 0.23 | 0.331 | 0.207 | 0.165 |
| NCI-H1755 | 1.01 | 0.901 | 0.737 | 0.428 | 0.421 | 0.362 | 0.848 | 0.805 | 0.481 | 0.911 | 0.821 | 0.51 | 0.62 | 0.497 | 0.42 | 0.736 | 0.695 | 0.356 |
| A-427 | 0.994 | 0.866 | 0.828 | 0.501 | 0.49 | 0.455 | 0.818 | 0.736 | 0.639 | 0.865 | 1.01 | 0.718 | 0.206 | 0.188 | 0.163 | 0.665 | 0.38 | 0.358 |
| HOP-62 | 1.03 | 1.06 | 0.753 | 0.468 | 0.426 | 0.292 | 0.817 | 1 | 0.693 | 1.09 | 1.1 | 0.946 | 0.399 | 0.356 | 0.3 | 0.372 | 0.248 | 0.198 |
